According to patent US20020132319A1, “Peptide mutant of human ERAB or HADH2, its X-ray crystal structure, and materials and method for identification of inhibitors thereof” (priority 2000, published 2002):
Entries after “also recorded” stand apart in the source; their conditions may differ.

Legend:
ERAB or HADH2 = target: T1, ERAB or HADH2 (Homo sapiens, UniProt Q99714); assay: Spectrophotometric ERAB or HADH2 inhibition assay (NADH, acetoacetyl-CoA as substrate); format: biochemical
T1 construct: made in house; host or cells: E. coli (plasmid pMGH4)
T1 sequence (Q99714 1-261): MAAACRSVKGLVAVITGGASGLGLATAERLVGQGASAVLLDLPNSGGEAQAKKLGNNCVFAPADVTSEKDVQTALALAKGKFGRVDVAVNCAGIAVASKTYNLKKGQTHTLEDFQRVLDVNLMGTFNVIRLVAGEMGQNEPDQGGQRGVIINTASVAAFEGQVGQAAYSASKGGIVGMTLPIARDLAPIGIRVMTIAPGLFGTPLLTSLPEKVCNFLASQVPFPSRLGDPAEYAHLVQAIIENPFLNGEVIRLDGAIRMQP
Description: The IC50 value for Compound I was determined spectrophotometrically by monitoring the […] of NADH to NAD^+ with acetoacetyl-CoA as substrate. Enzyme (2.5 nM) was preincubated with inhibitor for 400 seconds at 30° C. in the presence of 36 uM NADH, 25 mM MOPS, pH 7.5, 250 mM NaCl, 2% (v/v) DMSO, and 2.5 mM TCEP. The reaction was initiated by addition of substrate (38 μM). Reduction of NADH was monitored at […]. The IC50 value was determined by non-linear regression analysis using KaleidaGraph (obtained from Synergy Software, Reading, Pa.).

wild-type ERAB or HADH2 [1] = target: T2, wild-type ERAB or HADH2 (Homo sapiens, UniProt Q99714); assay: Isothermal titration calorimetry, inhibitor binding experiments
T2 construct: made in house; host or cells: E. coli (plasmid pMGH4; spontaneous mutant of strain BL21(DE3), 'B121 (DE3)' [sic])
T2 sequence (Q99714 1-261): T1 sequence (Q99714 1-261)
Description: FIG. 5 is a plot of integrated-binding data obtained for a calorimetric titration of wild-type ERAB or HADH2 into Compound I in the presence and absence of cofactor. Wild-type ERAB or HADH2 (415 μM) was titrated into 20 μM inhibitor in the presence and absence of 20 μM cofactor at 15° C. The closed symbols represent the integrated-data points for 10 μL injections of ERAB or HADH2 into inhibitor in the absence of cofactor (♦); in the presence of NAD^+ (●); and in the presence of NADH (▪). The open symbols represent the integrated data points for the corresponding control titrations of ERAB or HADH2 into buffer (Δ); in the presence of NAD^+ (∘); and in the presence of NADH (□). Lines connecting the data points have been added for visual clarity.
(§1) Titrations described herein were performed with an MCS microcalorimeter (obtained from MicroCal, Inc., Northampton, […].).
(§2) For the inhibitor binding experiments, the titrations were performed in 25 mM MOPS (pH 7.5), 125 mM NaCl, 10% glycerol, 2.0% DMSO, 0.5 mM TCEP (Tri(2-carboxyethyl)phosphine), 0.1 mM EDTA at 15° C. The syringe contained 415 μM wild-type ERAB or HADH2 and the cell contained either 20 μM inhibitor, 20 μM cofactor, or 20 μM each of inhibitor and cofactor. After a preliminary 20 μL injection, 12 injections of 10.0 μL each were made at 4 minute intervals. Dilution control titrations of buffer into buffer, protein into buffer, and buffer into inhibitor, cofactor and inhibitor/cofactor mixture were also performed. For the cofactor binding experiments, the titrations were performed in 50 mM MOPS (3-(N-morpholino) propanesulfonic acid, pH 7.5), 250 mM NaCl, 10% glycerol, 2.0% DMSO, 10 mM TCEP at 15° C.

[2] = target: E. coli 17β-hydroxysteroid dehydrogenase (Escherichia coli, UniProt P0AET8); assay: Inhibition of related SDR family member (E. coli enzyme); format: biochemical; conditions: at concentrations as high as 100 μM
[3] = target: Streptomycetes hydrogenans 3α-20β- hydroxysteroid dehydrogenase (Streptomyces exfoliatus, UniProt P19992); assay: Inhibition of related SDR family member (Streptomyces enzyme); format: biochemical; conditions: at concentrations as high as 100 μM
wild-type ERAB or HADH2 [4] = target: T2, wild-type ERAB or HADH2; assay: Isothermal titration calorimetry, cofactor binding experiments; conditions: 2.68 mM cofactor titrated into 127 μM wild-type ERAB or HADH2, 15° C.; read-out: Kd for NAD+
Description: as §1, §2
For the NADH titration, the syringe contained 700 μM cofactor and the cell contained 35 μM wild type ERAB or HADH2. For the NAD^+ titration, the syringe contained 2.68 mM cofactor and the cell contained 127 μM wild-type ERAB or HADH2.

Sequence of E. coli 17β-hydroxysteroid dehydrogenase (P0AET8 whole entry): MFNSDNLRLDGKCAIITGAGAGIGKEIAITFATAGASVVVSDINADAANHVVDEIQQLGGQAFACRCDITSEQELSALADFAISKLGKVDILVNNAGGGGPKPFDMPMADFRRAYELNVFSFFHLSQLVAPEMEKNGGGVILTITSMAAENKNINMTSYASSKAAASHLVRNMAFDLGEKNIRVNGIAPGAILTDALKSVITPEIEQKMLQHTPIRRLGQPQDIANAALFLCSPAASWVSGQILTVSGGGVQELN
Sequence of Streptomycetes hydrogenans 3α-20β- hydroxysteroid dehydrogenase (P19992 whole entry): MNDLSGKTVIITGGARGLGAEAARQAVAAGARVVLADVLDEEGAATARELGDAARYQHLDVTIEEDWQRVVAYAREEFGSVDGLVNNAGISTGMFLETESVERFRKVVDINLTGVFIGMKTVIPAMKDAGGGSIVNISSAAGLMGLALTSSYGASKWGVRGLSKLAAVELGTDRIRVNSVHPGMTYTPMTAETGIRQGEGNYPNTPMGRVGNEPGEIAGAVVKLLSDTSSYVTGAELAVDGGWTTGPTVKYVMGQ

| ITC binding when ERAB or HADH2 titrated into cofactor alone (wild-type ERAB or HADH2 [1]; ERAB 415 μM titrated into 20 μM NAD+ alone, 15° C.) | Kd (wild-type ERAB or HADH2 [4]) [µM] | Structure (SMILES) | IC50 against ERAB (ERAB or HADH2; Compound I made according to Scheme 1) [µM] | average IC50 against ERAB or HADH2 (ERAB or HADH2; Compound I made according to Scheme 2, racemic mixture) [µM] | ITC binding to ERAB or HADH2 in the absence of cofactor (wild-type ERAB or HADH2 [1]; ERAB 415 μM titrated into 20 μM inhibitor alone, 15° C.) | ITC binding to ERAB or HADH2 in the presence of NAD+ (wild-type ERAB or HADH2 [1]; ERAB titrated into equimolar 20 μM inhibitor and NAD+, 15° C.) | ITC binding to ERAB or HADH2 in the presence of NADH (wild-type ERAB or HADH2 [1]; ERAB titrated into equimolar 20 μM inhibitor and NADH, 15° C.) | binding to ERAB or HADH2 more potent with NAD+ than in the absence of NAD+ (wild-type ERAB or HADH2 [1]; with NAD+ versus absence of NAD+) | inhibition of E. coli 17β-hydroxysteroid dehydrogenase [2] | inhibition of Streptomycetes hydrogenans 3α-20β-hydroxysteroid dehydrogenase [3] |
| --- | --- | --- | --- | --- | --- | --- | --- | --- | --- | --- |
|  |  | O=C(C(c1ccccc1)n1cnc2[nH]ncc2c1=S)N1CCCCCC1 (racemic) [Compound I, 1-azepan-1-yl-2-phenyl-2-(4-thioxo-1,4-dihydro-pyrazolo[3,4-d]pyrimidin-5-yl)-ethanone] | 0.088 | 0.092 ± 0.005 | binds weakly; also recorded: No binding was detected | tight-binding curve | binds weakly | approximately 1000 fold | no detectable inhibition | no detectable inhibition |
| No binding was detected | ~500 | NC(=O)c1ccc[n+]([C@@H]2O[C@H](COP(=O)([O-])OP(=O)(O)OC[C@H]3O[C@@H](n4cnc5c(N)ncnc54)[C@H](O)[C@@H]3O)[C@@H](O)[C@H]2O)c1 [NAD^+, reference compound] |  |  |  |  |  |  |  |  |
